# ChEMBL document CHEMBL4130350, “Discovery, mechanism and metabolism studies of 2,3-difluorophenyl-linker-containing PARP1 inhibitors with enhanced in vivo efficacy for cancer therapy” (Eur J Med Chem, 2017)
# Experiments:
# [1] = molecular target: Poly [ADP-ribose] polymerase 1 (Homo sapiens, UniProt P09874); assay: Inhibition of PARP1 (unknown origin) by ELISA
# [2] = Cytotoxicity against BRCA2 deficient Chinese hamster VC8 cells after 3 days by CCK8 or SRB assay; type: functional, cell-based; conditions: Cricetulus griseus, V-C8, 72 h
# [3] = tested on: MDA-MB-436; assay: Antiproliferative activity against human MDA-MB-436 cells after 7 days by CCK8 or SRB assay; type: functional, cell-based; conditions: MDA-MB-436, 168 h
# [4] = tested on: V79; assay: Cytotoxicity against BRCA2 expressing Chinese hamster V79 cells after 3 days by CCK8 or SRB assay; type: cell-based; conditions: Cricetulus griseus, V79, 72 h
# [5] = Retention time in mouse liver microsomes at 2 uM up to 60 mins in presence of NADPH by LC-MS/MS analysis; type: ADME, microsome; conditions: 1 h
# [6] = Drug level in mouse liver microsomes treated with 2-(4-(2,3-Difluoro-5-((4-oxo-3,4-dihydrophthalazin-1-yl)methyl)benzoyl)pipe-razin-1-yl)nicotinonitrile at 2 uM up to 60 mins by LC-MS/MS analysis; type: ADME, microsome; conditions: 1 h
# [7] = Solubility of the compound in water after 24 hrs by HPLC analysis; type: physicochemical
# Poly [ADP-ribose] polymerase 1, sequence (P09874 whole entry): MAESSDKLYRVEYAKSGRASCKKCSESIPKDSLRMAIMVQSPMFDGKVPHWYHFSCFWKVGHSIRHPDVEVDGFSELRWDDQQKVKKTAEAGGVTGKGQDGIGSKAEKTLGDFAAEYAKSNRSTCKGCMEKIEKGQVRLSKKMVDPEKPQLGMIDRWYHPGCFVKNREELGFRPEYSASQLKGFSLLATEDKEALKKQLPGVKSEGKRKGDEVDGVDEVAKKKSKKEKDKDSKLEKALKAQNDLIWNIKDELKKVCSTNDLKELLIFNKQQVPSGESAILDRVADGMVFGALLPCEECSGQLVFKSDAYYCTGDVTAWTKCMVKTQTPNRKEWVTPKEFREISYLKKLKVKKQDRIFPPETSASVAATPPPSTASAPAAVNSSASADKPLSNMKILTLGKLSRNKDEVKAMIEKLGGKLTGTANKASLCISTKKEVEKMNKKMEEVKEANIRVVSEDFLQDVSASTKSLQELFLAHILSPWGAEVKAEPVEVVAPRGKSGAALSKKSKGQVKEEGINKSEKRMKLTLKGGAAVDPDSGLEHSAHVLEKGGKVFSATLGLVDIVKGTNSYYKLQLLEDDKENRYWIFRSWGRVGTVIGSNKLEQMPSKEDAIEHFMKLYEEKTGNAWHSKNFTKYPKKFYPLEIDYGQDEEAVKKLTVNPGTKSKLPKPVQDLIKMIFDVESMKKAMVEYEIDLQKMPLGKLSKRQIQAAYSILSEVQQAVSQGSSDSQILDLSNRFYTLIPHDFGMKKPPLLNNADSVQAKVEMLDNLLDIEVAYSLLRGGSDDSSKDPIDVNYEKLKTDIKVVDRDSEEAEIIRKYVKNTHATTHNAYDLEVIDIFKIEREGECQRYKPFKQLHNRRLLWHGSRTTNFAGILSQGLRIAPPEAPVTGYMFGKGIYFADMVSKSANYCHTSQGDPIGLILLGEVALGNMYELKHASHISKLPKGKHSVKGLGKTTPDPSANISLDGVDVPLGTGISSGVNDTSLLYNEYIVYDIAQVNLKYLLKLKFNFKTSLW
IC50 [1],IC50 [3],SMILES,IC50 [2],IC50 [4],also measured
297 nM,,COc1ccccc1N1CCN(C(=O)c2cc(Cc3n[nH]c(=O)c4ccccc34)cc(F)c2F)CC1,,,
2.4 nM,4.9 nM,O=C(c1cc(Cc2n[nH]c(=O)c3ccccc23)cc(F)c1F)N1CCN(C(=O)C2CCCO2)CC1 (stereo not drawn),68.1 nM,> 10 µM,
0.8 nM,23.4 nM,O=C(c1cc(Cc2n[nH]c(=O)c3ccccc23)cc(F)c1F)N1CCN(c2cccc(C(F)(F)F)c2)CC1,624 nM,> 10 µM,
2.9 nM,,O=C(c1cc(Cc2n[nH]c(=O)c3ccccc23)cc(F)c1F)N1CCN(c2ncccn2)CC1,,,
11.2 nM,,O=C(c1cc(Cc2n[nH]c(=O)c3ccccc23)cc(F)c1F)N1CCN(C(=O)C2CC2)CC1,,,
70.5 nM,,O=C(c1cc(Cc2n[nH]c(=O)c3ccccc23)cc(F)c1F)N1CCN(c2ncc(C(F)(F)F)cn2)CC1,,,
324 nM,,Cc1ccc(Cl)cc1N1CCN(C(=O)c2cc(Cc3n[nH]c(=O)c4ccccc34)cc(F)c2F)CC1,,,
5.1 nM,,N#Cc1cccc(N2CCN(C(=O)c3cc(Cc4n[nH]c(=O)c5ccccc45)cc(F)c3F)CC2)n1,,,
2.3 nM,25.7 nM,O=C(c1cc(Cc2n[nH]c(=O)c3ccccc23)cc(F)c1F)N1CCN(C(=O)N2CCOCC2)CC1,938 nM,> 10 µM,
0.9 nM,3.7 nM,O=C(c1cc(Cc2n[nH]c(=O)c3ccccc23)cc(F)c1F)N1CCN(c2ccncc2)CC1,3290 nM,> 10 µM,
0.4 nM,9.4 nM,O=C(c1cc(Cc2n[nH]c(=O)c3ccccc23)cc(F)c1F)N1CCN(c2ccc([N+](=O)[O-])cc2)CC1,206 nM,> 10 µM,
157 nM,,O=C(c1cc(Cc2n[nH]c(=O)c3ccccc23)cc(F)c1F)N1CCN(Cc2cccnc2)CC1,,,
2.6 nM,10.6 nM,O=C(c1cc(Cc2n[nH]c(=O)c3ccccc23)cc(F)c1F)N1CCN(C2CCCC2)CC1,284 nM,> 10 µM,
7.1 nM,,CC(=O)N1CCN(C(=O)c2cc(Cc3n[nH]c(=O)c4ccccc34)cc(F)c2F)CC1,,,
103 nM,,O=C(c1cc(Cc2n[nH]c(=O)c3ccccc23)cc(F)c1F)N1CCN(c2ccc(Cl)cc2)CC1,,,
,,N#Cc1cccnc1NCCN(CC(=O)O)C(=O)c1cc(Cc2n[nH]c(=O)c3ccccc23)cc(F)c1F,,,Retention_time [5]: 6.7 min; Drug uptake [6]: Active
110 nM,,O=C(c1cc(Cc2n[nH]c(=O)c3ccccc23)cc(F)c1F)N1CCN(c2nccc(Br)n2)CC1,,,
,,N#Cc1cccnc1NCCN(CCO)C(=O)c1cc(Cc2n[nH]c(=O)c3ccccc23)cc(F)c1F,,,Retention_time [5]: 6.2 min; Drug uptake [6]: Active
0.9 nM,0.3 nM,O=C(c1cc(Cc2n[nH]c(=O)c3ccccc23)cc(F)c1F)N1CCN(c2ccccc2O)CC1,31.7 nM,7.83 µM,
52.2 nM,,O=C(c1cc(Cc2n[nH]c(=O)c3ccccc23)cc(F)c1F)N1CCN(c2nsc3ccccc23)CC1,,,
5.4 nM,,N#Cc1ccc(N2CCN(C(=O)c3cc(Cc4n[nH]c(=O)c5ccccc45)cc(F)c3F)CC2)cc1,,,

IC50 [1],IC50 [3],SMILES,IC50 [2],IC50 [4],also measured
0.1 nM,< 0.03 nM,O=C(c1cc(Cc2n[nH]c(=O)c3ccccc23)cc(F)c1F)N1CCN(c2ccccn2)CC1,< 3.2 nM,0.924 µM,
0.02 nM,< 0.05 nM,N#Cc1ccccc1N1CCN(C(=O)c2cc(Cc3n[nH]c(=O)c4ccccc34)cc(F)c2F)CC1,8.8 nM,4.34 µM,solubility at 24 h [7]: < 0.2 µg/mL
2.1 nM,< 0.03 nM,CCCCN1CCN(C(=O)c2cc(Cc3n[nH]c(=O)c4ccccc34)cc(F)c2F)CC1,149 nM,0.771 µM,
29.1 nM,,Cc1ccc(C(=O)N2CCN(C(=O)c3cc(Cc4n[nH]c(=O)c5ccccc45)cc(F)c3F)CC2)cc1,,,
0.5 nM,82.4 nM,O=C(c1cc(Cc2n[nH]c(=O)c3ccccc23)cc(F)c1F)N1CCN(c2ccccc2)CC1,1940 nM,6.03 µM,
0.4 nM,10.8 nM,O=C(c1cc(Cc2n[nH]c(=O)c3ccccc23)cc(F)c1F)N1CCN(c2ccc(F)cc2)CC1,90.1 nM,2.85 µM,
96.8 nM,,O=C(c1cc(Cc2n[nH]c(=O)c3ccccc23)cc(F)c1F)N1CCN(Cc2ccccc2)CC1,,,
4.2 nM,396 nM,O=C(c1cc(Cc2n[nH]c(=O)c3ccccc23)cc(F)c1F)N1CCN(c2cccc(Cl)c2)CC1,1600 nM,7.88 µM,
0.2 nM,6.3 nM,O=C(c1cc(Cc2n[nH]c(=O)c3ccccc23)cc(F)c1F)N1CCN(c2nccs2)CC1,137 nM,> 10 µM,
112 nM,,COc1ccc(N2CCN(C(=O)c3cc(Cc4n[nH]c(=O)c5ccccc45)cc(F)c3F)CC2)cc1,,,
0.6 nM,27.1 nM,O=C(c1cc(Cc2n[nH]c(=O)c3ccccc23)cc(F)c1F)N1CCN(c2ccc(O)cc2)CC1,3970 nM,> 10 µM,
0.8 nM,6 nM,O=C(c1cc(Cc2n[nH]c(=O)c3ccccc23)cc(F)c1F)N1CCN(C2CCCCCC2)CC1,42.6 nM,> 10 µM,
6.1 nM,,O=C(c1ccccc1)N1CCN(C(=O)c2cc(Cc3n[nH]c(=O)c4ccccc34)cc(F)c2F)CC1,,,
3.5 nM,,O=C(c1cc(Cc2n[nH]c(=O)c3ccccc23)cc(F)c1F)N1CCN(C2CCCCC2)CC1,,,
< 0.1 nM,405 nM,Cc1ccc(N2CCN(C(=O)c3cc(Cc4n[nH]c(=O)c5ccccc45)cc(F)c3F)CC2)cc1,2080 nM,> 10 µM,
83.4 nM,,O=C(c1cc(Cc2n[nH]c(=O)c3ccccc23)cc(F)c1F)N1CCN(c2ccc(Br)cc2)CC1,,,
175 nM,,O=C(c1cc(Cc2n[nH]c(=O)c3ccccc23)cc(F)c1F)N1CCN(c2ncc(Br)cn2)CC1,,,
9.7 nM,,O=C(c1cc(Cc2n[nH]c(=O)c3ccccc23)cc(F)c1F)N1CCN(CC2CC2)CC1,,,
1.4 nM,12.9 nM,CCN1CCN(C(=O)c2cc(Cc3n[nH]c(=O)c4ccccc34)cc(F)c2F)CC1,987 nM,> 10 µM,
55.8 nM,,O=C(c1cc(Cc2n[nH]c(=O)c3ccccc23)cc(F)c1F)N1CCN(c2ccccc2F)CC1,,,
